According to ChEMBL document CHEMBL1201862, “PubChem BioAssay data set” (2004):
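All cell lines were grown in 96-well plates and treated with compound for 48 hours. GI50 marks 50% less growth.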 Calls of active or inactive are those of the source. Rule as the data show it: active = GI50 up to about 1.1 µM and inactive = higher.

Columns and labels:
Test in all cases: NCI-60 cell line screen, 48 h
786-0 = test system: 786-0
A498 = test system: A498
A549 = test system: A549
ACHN = test system: ACHN
BT-549 = test system: BT-549
CAKI-1 = test system: CAKI-1
CCRF-CEM = test system: CCRF-CEM
COLO 205 = test system: COLO 205
DU-145 = test system: DU-145
EKVX = test system: EKVX
HCC 2998 = test system: HCC 2998
HCT-116 = test system: HCT-116
HCT-15 = test system: HCT-15
HL-60 = test system: HL-60
HOP-62 = test system: HOP-62
HOP-92 = test system: HOP-92
HT-29 = test system: HT-29
Hs-578T = test system: Hs-578T
IGROV-1 = test system: IGROV-1
K562 = test system: K562
KM12 = test system: KM12
LOX IMVI = test system: LOX IMVI
M14 = test system: M14
MCF7 = test system: MCF7
MDA-MB-231 = test system: MDA-MB-231
MDA-MB-435 = test system: MDA-MB-435
MDA-N = test system: MDA-N
MOLT-4 = test system: MOLT-4
Malme-3M = test system: Malme-3M
NCI-H226 = test system: NCI-H226
NCI-H23 = test system: NCI-H23
NCI-H460 = test system: NCI-H460
NCI-H522 = test system: NCI-H522
NCI/ADR-RES = test system: NCI/ADR-RES
OVCAR-3 = test system: OVCAR-3
OVCAR-4 = test system: OVCAR-4
OVCAR-5 = test system: OVCAR-5
OVCAR-8 = test system: OVCAR-8
PC-3 = test system: PC-3
RXF 393 = test system: RXF 393
SF-268 = test system: SF-268
SF-295 = test system: SF-295
SF-539 = test system: SF-539
SK-MEL-28 = test system: SK-MEL-28
SK-MEL-5 = test system: SK-MEL-5
SK-OV-3 = test system: SK-OV-3
SN12C = test system: SN12C
SNB-19 = test system: SNB-19
SR = test system: SR
SW-620 = test system: SW-620
T47D = test system: T47D
TK-10 = test system: TK-10
U-251 = test system: U-251
UACC-257 = test system: UACC-257
UACC-62 = test system: UACC-62
UO-31 = test system: UO-31

SMILES: COc1ccc2c(c1)C1=NCCN(C)c3ccc([N+](=O)[O-])c(c31)N2
- GI50 (786-0): 430 nM (active)
- GI50 (A498): 1.61 µM (inactive)
- GI50 (A549): 525 nM (active)
- GI50 (ACHN): 465 nM (active)
- GI50 (BT-549): 2.91 µM (inactive)
- GI50 (CAKI-1): 698 nM (active)
- GI50 (CCRF-CEM): 5.73 µM (inactive)
- GI50 (COLO 205): 533 nM (active)
- GI50 (DU-145): 1.02 µM (active)
- GI50 (EKVX): 1.56 µM (inactive)
- GI50 (HCC 2998): 1.26 µM (inactive)
- GI50 (HCT-116): 312 nM (active)
- GI50 (HCT-15): 460 nM
- GI50 (HL-60): 3.16 µM (inactive)
- GI50 (HOP-62): 785 nM (active)
- GI50 (HOP-92): 1.4 µM (inactive)
- GI50 (HT-29): 573 nM (active)
- GI50 (Hs-578T): 1.66 µM (inactive)
- GI50 (IGROV-1): 1.41 µM (inactive)
- GI50 (K562): 12.2 µM (inactive)
- GI50 (KM12): 1.21 µM (inactive)
- GI50 (LOX IMVI): 431 nM (active)
- GI50 (M14): 1 µM (active)
- GI50 (MCF7): 1.15 µM (inactive)
- GI50 (MDA-MB-231): 565 nM (active)
- GI50 (MDA-MB-435): 748 nM (active)
- GI50 (MDA-N): 546 nM (active)
- GI50 (MOLT-4): 705 nM (active)
- GI50 (Malme-3M): 1.04 µM (active)
- GI50 (NCI-H226): 502 nM (active)
- GI50 (NCI-H23): 891 nM (active)
- GI50 (NCI-H460): 271 nM (active)
- GI50 (NCI-H522): 635 nM (active)
- GI50 (NCI/ADR-RES): 665 nM (active)
- GI50 (OVCAR-3): 1.36 µM (inactive)
- GI50 (OVCAR-4): 685 nM (active)
- GI50 (OVCAR-5): 2.19 µM (inactive)
- GI50 (OVCAR-8): 900 nM (active)
- GI50 (PC-3): 583 nM (active)
- GI50 (RXF 393): 277 nM (active)
- GI50 (SF-268): 731 nM (active)
- GI50 (SF-295): 1.02 µM (active)
- GI50 (SF-539): 423 nM (active)
- GI50 (SK-MEL-28): 2.55 µM (inactive)
- GI50 (SK-MEL-5): 1.45 µM (inactive)
- GI50 (SK-OV-3): 2.23 µM (inactive)
- GI50 (SN12C): 796 nM (active)
- GI50 (SNB-19): 652 nM (active)
- GI50 (SR): 2.88 µM (inactive)
- GI50 (SW-620): 415 nM (active)
- GI50 (T47D): 2.66 µM (inactive)
- GI50 (TK-10): 2.86 µM (inactive)
- GI50 (U-251): 1.34 µM (inactive)
- GI50 (UACC-257): 2.54 µM (inactive)
- GI50 (UACC-62): 1.1 µM (active)
- GI50 (UO-31): 555 nM (active)
